The results in this text go back to PubChem BioAssay AID328 (DTP/NCI, 2004).

Several values for one entry are separate records, joined by “and”; a condition that tells them apart may be missing. Identical values can stand only once. Toxic doses and inconclusive results are not listed.

The subject of the assay is BDF1 mice, P388 leukemia ip, median survival T/C. As to the kind of experiment: NCI In Vivo Anticancer Drug Screen. Data for tumor model P388 Leukemia (intraperitoneal) in B6D2F1 (BDF1) mice. The note with it: endpoint: median survival time, higher = longer survival. In outline:
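Transplantable tumour in mice; compound vs vehicle dosing; survival scored; ratio of treated to control reported.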

[1] abbreviates: dose: 12.5 mg/kg/injection, schedule: Q01DX009 (ip), vehicle: saline.
Where [2] appears, read: dose: 25.0 mg/kg/injection, schedule: Q01DX009 (ip), vehicle: saline.
Where [3] appears, read: dose: 6.25 mg/kg/injection, schedule: Q01DX009 (ip), vehicle: saline.
Where [4] appears, read: dose: 100.0 mg/kg/injection, schedule: Q01DX009 (ip), vehicle: saline with Tween-80.
Setting [5] is: dose: 200.0 mg/kg/injection, schedule: Q01DX009 (ip), vehicle: saline with Tween-80.
Where [6] appears, read: dose: 400.0 mg/kg/injection, schedule: Q01DX009 (ip), vehicle: saline with Tween-80.
The mark [7] stands for this setting: dose: 100.0 mg/kg/injection, schedule: Q04DX003 (ip), vehicle: Klucel (hydroxypropylcellulose) (HPC).
Where [8] appears, read: dose: 200.0 mg/kg/injection, schedule: Q04DX003 (ip), vehicle: Klucel (hydroxypropylcellulose) (HPC).
[9] abbreviates: dose: 400.0 mg/kg/injection, schedule: Q04DX003 (ip), vehicle: Klucel (hydroxypropylcellulose) (HPC).
Setting [10] is: dose: 100.0 mg/kg/injection, schedule: Q01DX001 (ip), vehicle: saline with Tween-80.
The mark [11] stands for this setting: dose: 200.0 mg/kg/injection, schedule: Q01DX001 (ip), vehicle: saline with Tween-80.

Turning to `Nc1cc(Cl)c2cccnc2c1O`, the T/C runs as follows: under setting [1], 111 % of control and 115 % of control; (dose: 22.0 mg/kg/injection, schedule: Q01DX009 (ip), vehicle: saline) 118 % of control; under setting [2], 104 % of control and 117 % of control; (dose: 44.0 mg/kg/injection, schedule: Q04DX003 (ip), vehicle: saline sonified) 100 % of control; (dose: 50.0 mg/kg/injection, schedule: Q04DX003 (ip), vehicle: saline sonified) 100 % of control; (dose: 66.0 mg/kg/injection, schedule: Q04DX003 (ip), vehicle: saline sonified) 118 % of control. The T/C (dose: 100.0 mg/kg/injection, schedule: Q04DX003 (ip), vehicle: saline sonified) is 113 % of control.

For `Cc1cc[n+](CCc2ccccc2)cc1`, the T/C reads like this: under setting [3], 91 % of control; under setting [1], 87 % of control; (dose: 18.75 mg/kg/injection, schedule: Q01DX010 (ip), vehicle: acetone) 91 % of control; (dose: 37.5 mg/kg/injection, schedule: Q01DX010 (ip), vehicle: acetone) 87 % of control; (dose: 50.0 mg/kg/injection, schedule: Q01DX009 (ip), vehicle: saline) 112 % of control; (dose: 75.0 mg/kg/injection, schedule: Q01DX010 (ip), vehicle: acetone) 91 % of control.

`[Cl][Rh][Cl].c1cn[nH]c1.c1cn[nH]c1.c1cn[nH]c1.c1cn[nH]c1`: the T/C by setting is: (dose: 12.5 mg/kg/injection, schedule: Q01DX009 (ip), vehicle: Klucel (hydroxypropylcellulose) (HPC)) 114 % of control; (dose: 25.0 mg/kg/injection, schedule: Q01DX009 (ip), vehicle: Klucel (hydroxypropylcellulose) (HPC)) 94 % of control.

For `Cc1cc(OC(=O)Nc2cccc(Cl)c2C)ccc1Cl`, the T/C is, setting by setting: (dose: 100.0 mg/kg/injection, schedule: Q04DX003 (ip), vehicle: saline with Tween-80) 104 % of control; (dose: 200.0 mg/kg/injection, schedule: Q04DX003 (ip), vehicle: saline with Tween-80) 104 % of control; (dose: 400.0 mg/kg/injection, schedule: Q04DX003 (ip), vehicle: saline with Tween-80) 109 % of control.

As to `C#CCOCC1CNC(=S)O1` (stereo unspecified), the T/C is, setting by setting: under setting [4], 100 % of control; under setting [5], 100 % of control; under setting [6], 100 % of control.

For the compound `CC(=O)OCc1c(O)c2c(c(O)c1COC(C)=O)C(=O)C=CC2=O`, the T/C was 107 % of control (dose: 1.56 mg/kg/injection, schedule: Q01DX009 (ip), vehicle: saline); 96 % of control (dose: 3.12 mg/kg/injection, schedule: Q01DX009 (ip), vehicle: saline); 105 % of control under setting [3]; 87 % of control under setting [1]; 94 % of control under setting [2].

Turning to `O=S(=O)(O)CCBr`, the T/C is, setting by setting: (dose: 265.0 mg/kg/injection, schedule: Q01DX001 (ip), vehicle: saline) 90 % of control; (dose: 267.0 mg/kg/injection, schedule: Q01DX001 (ip), vehicle: saline) 100 % of control; (dose: 400.0 mg/kg/injection, schedule: Q01DX001 (ip), vehicle: saline) 86 % of control and 90 % of control.

In the case of `Cc1ccc(C[P+](c2ccccc2)(c2ccccc2)c2ccccc2)cc1`, the T/C was 114 % of control (dose: 2.5 mg/kg/injection, schedule: Q01DX010 (ip), vehicle: saline); 114 % of control (dose: 5.0 mg/kg/injection, schedule: Q01DX010 (ip), vehicle: saline); 104 % of control (dose: 10.0 mg/kg/injection, schedule: Q01DX010 (ip), vehicle: saline).

As for `c1ccc(Sc2cccc3ccccc23)cc1`, the T/C under setting [4] is 100 % of control, the T/C under setting [5] was 104 % of control and the T/C under setting [6] was 104 % of control.

Regarding `COC(C)C(O)(C(N)=O)C(C)C` (stereo unspecified), the T/C is 95 % of control (dose: 100.0 mg/kg/injection, schedule: Q01DX009 (ip), vehicle: Klucel (hydroxypropylcellulose) (HPC)); 100 % of control under setting [7]; 86 % of control (dose: 200.0 mg/kg/injection, schedule: Q01DX009 (ip), vehicle: Klucel (hydroxypropylcellulose) (HPC)); 100 % of control under setting [8]; 90 % of control (dose: 400.0 mg/kg/injection, schedule: Q01DX009 (ip), vehicle: Klucel (hydroxypropylcellulose) (HPC)); 100 % of control under setting [9].

For `NS(=O)(=O)CS(=O)(=O)Oc1ccccc1`, the T/C was 100 % of control under setting [10] and 99 % of control under setting [11].

`Cc1c2ccccc2c(C)c2c1ccc1ccccc12`: the T/C was 172 % of control (dose: 1.7 mg/kg/injection, schedule: Q01DX009 (ip), vehicle: saline with Tween-80); 163 % of control (dose: 2.6 mg/kg/injection, schedule: Q01DX009 (ip), vehicle: saline with Tween-80); 177 % of control (dose: 4.0 mg/kg/injection, schedule: Q01DX009 (ip), vehicle: saline with Tween-80); 168 % of control (dose: 6.0 mg/kg/injection, schedule: Q01DX009 (ip), vehicle: saline with Tween-80); 172 % of control (dose: 13.0 mg/kg/injection, schedule: Q01DX009 (ip), vehicle: saline with Tween-80).

On to `C/C(c1nc(N)nc(N)c1-c1ccc(Cl)cc1)=[N+](\C)[O-]`, for which the T/C is, setting by setting: under setting [10], 95 % of control; under setting [11], 104 % of control; (dose: 400.0 mg/kg/injection, schedule: Q01DX001 (ip), vehicle: saline with Tween-80) 97 % of control.

With `CC(Br)C(=O)NC(CO)C(=O)O` (stereo unspecified), the T/C runs as follows: (dose: 100.0 mg/kg/injection, schedule: Q04DX003 (ip), vehicle: saline) 95 % of control; (dose: 200.0 mg/kg/injection, schedule: Q04DX003 (ip), vehicle: saline) 91 % of control; (dose: 400.0 mg/kg/injection, schedule: Q04DX003 (ip), vehicle: saline) 91 % of control.

With `OC(c1ccc(Cl)cc1)(c1ccc(Cl)cc1)C(F)(F)F`, the T/C is, setting by setting: (dose: 100.0 mg/kg/injection, schedule: Q01DX009 (sc), vehicle: olive oil, sesame oil, peanut oil) 96 % of control; (dose: 100.0 mg/kg/injection, schedule: Q04DX003 (sc), vehicle: olive oil, sesame oil, peanut oil) 109 % of control; (dose: 200.0 mg/kg/injection, schedule: Q04DX003 (sc), vehicle: olive oil, sesame oil, peanut oil) 100 % of control; (dose: 400.0 mg/kg/injection, schedule: Q04DX003 (sc), vehicle: olive oil, sesame oil, peanut oil) 95 % of control.

Consider `[N-]=[N+]=NC(=O)c1ccccn1`, for which the T/C (dose: 25.0 mg/kg/injection, schedule: Q01DX009 (ip), vehicle: saline with Tween-80) was 101 % of control.

For the compound `c1cc[c]([Sn]([c]2ccccc2)([c]2ccccc2)[n]2cncn2)cc1`, the T/C is 106 % of control (dose: 3.12 mg/kg/injection, schedule: Q01DX009 (ip), vehicle: saline with Tween-80) and 106 % of control (dose: 6.25 mg/kg/injection, schedule: Q01DX009 (ip), vehicle: saline with Tween-80).

As for `CC1=Cc2ccc(C)cc2C(=O)C1=O`, the T/C reads like this: (dose: 3.13 mg/kg/injection, schedule: Q01DX009 (ip), vehicle: Klucel (hydroxypropylcellulose) (HPC)) 102 % of control; (dose: 6.25 mg/kg/injection, schedule: Q01DX009 (ip), vehicle: Klucel (hydroxypropylcellulose) (HPC)) 108 % of control.

As for `Cc1cccc(NC(=O)c2ccccc2C(=O)O)c1C`, the T/C under setting [7] was 91 % of control, the T/C under setting [8] was 91 % of control and the T/C under setting [9] was 100 % of control.
